target: human α7 nAChR (Homo sapiens (Human), UniProt P36544); assay: Automated patch-clamp electrophysiology functional assay (Assay A); assay type: cell-based; conditions: IonFlux HT whole-cell population patch, HEK cell line stably expressing human RIC-3 and human α7, 40 μM acetylcholine
Method: The α7 nAChR positive allosteric modulator (PAM) activity of the present compounds may be tested using assays known in the art. The α7 nAChR PAMs described herein have activities in an automated patch-clamp electrophysiology functional assay as described in the examples. The assay was performed using the IonFlux HT in a whole-cell, population patch configuration. See Golden et al. Assay Drug Dev. Technol. (2011) 9:608-619. The compounds were assessed for their ability to modulate the function of the human α7 nAChR stably expressed in a HEK cell line both in the presence, and in the absence of the natural α7 agonist acetylcholine. By performing a series of such measurements at different concentrations, the effective concentration of the α7 nAChR PAMs (EC50) was determined. See Spencer et al. Assay Drug Dev. Technol. (2012) 10:313-324.
Direct activation of α7 (agonism), and potentiation of acetylcholine-evoked α7 currents was determined as follows:
Automated patch-clamp electrophysiology was performed using the IonFlux HT (Fluxion Biosciences Inc., San Francisco, CA) in the whole-cell, population patch configuration. Test compounds were assessed for their ability to modulate the function of the α7 nicotinic acetylcholine receptor both in the presence, and in the absence of the natural α7 agonist acetylcholine. A HEK cell line stably expressing both human RIC-3 and human α7 (PrecisION hnAChR α7/RIC-3, Eurofins Pharma, St. Charles, MO) was cultured in 175 cm^2 triple-layer tissue culture flasks to no more than 90% confluency in DMEM/F-12 growth media supplemented with 10% heat-inactivated fetal bovine serum, 1% non-essential amino acids, 0.625 μg/mL Puromycin, and 400 μg/mL Geneticin. Immediately prior to assay, cells were detached by first aspirating growth media, rinsing with Dulbecco's phosphate buffered saline, and then adding 10 mL of Accutase (Innovative Cell Technologies, San Diego, CA) to the flask and then incubating at 37° C. for 5 minutes. Detached cells were then recovered by the addition of 40 mL of CHO-serum-free media supplemented with 25 mM HEPES, and rocked gently in a 50 mL conical tube for 20 minutes prior to patch-clamp assay. After recovery, cells were pelleted by centrifugation at 1,000 RPM for 1 minute in a compact bench top centrifuge; recovery media was aspirated and cells were resuspended in external recording solution (150 mM NaCl, 5 mM KCl, 2 mM CaCl2), 1 mM MgCl2, 10 mM HEPES, 12 mM dextrose) to a density of 5.0×10^6 cells/mL. The cell suspension was added to the cell inlet wells on an IonFlux HT population patch plate which had previously been rinsed and primed with deionized H2O. Test compounds were serially diluted in DMSO and then resuspended to the final test concentration in external recording solution, with, or without 40 μM acetylcholine added to the external recording solution; test compounds were then transferred to the IonFlux HT population patch plate. Internal recording solution (110 mM TrisPO4, 28 mM TrisBase, 0.1 mM CaCl2), 2 mM MgCl2, 11 mM EGTA, 4 mM MgATP) was added to the internal recording solution inlet wells on the IonFlux HT patch plate previously loaded with cells and test compounds, and the plate loaded into the IonFlux HT instrument. A protocol was executed on the IonFlux HT to trap the cells, break into the cells, and establish the whole-cell recording configuration; cells were voltage-clamped at a holding potential of −60 mV for the duration of the experiment, all experiments were conducted at room temperature, and the IonFlux HT injection pressure was 8 psi for solution applications. Upon establishing the whole-cell configuration, external recording solution was perfused into the recording chambers for 120 seconds and then 40 μM acetylcholine was applied for 1 second and immediately washed off with external recording solution for 60 seconds. […]

human α7 nAChR, sequence (P36544 23-502): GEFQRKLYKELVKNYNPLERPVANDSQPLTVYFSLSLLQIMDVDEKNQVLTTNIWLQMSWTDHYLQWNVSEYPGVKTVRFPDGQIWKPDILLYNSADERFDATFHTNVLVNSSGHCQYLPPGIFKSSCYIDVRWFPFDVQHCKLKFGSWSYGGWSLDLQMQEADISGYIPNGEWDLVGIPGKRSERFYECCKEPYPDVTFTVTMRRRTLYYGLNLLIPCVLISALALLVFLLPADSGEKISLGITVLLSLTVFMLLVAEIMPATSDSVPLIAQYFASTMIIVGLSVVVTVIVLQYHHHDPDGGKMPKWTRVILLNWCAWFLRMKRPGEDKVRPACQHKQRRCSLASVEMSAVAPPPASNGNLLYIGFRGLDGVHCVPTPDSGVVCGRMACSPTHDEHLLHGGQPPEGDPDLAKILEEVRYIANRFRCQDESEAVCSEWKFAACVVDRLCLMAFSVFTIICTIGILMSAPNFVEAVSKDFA

| SMILES | EC50 [nM] |
| --- | --- |
| NS(=O)(=O)N1CCC2(CC1)C(c1cccc(-c3ccccc3)n1)C2(F)F (stereo not shown) [Example 2, 1,1-Difluoro-2-(6-phenylpyridin-2-yl)-6-azaspiro[2.5]octane-6-sulfonamide] | 1600 |
| NS(=O)(=O)N1CCC2(CC1)[C@@H](c1cc(-c3ccccc3)ccn1)C2(F)F [Example B2, (2S)-1,1-Difluoro-2-(4-phenylpyridin-2-yl)-6-azaspiro[2.5]octane-6-sulfonamide] | 1700 |
| NS(=O)(=O)N1CCC2(CC1)[C@H](c1cccc(-c3ccccc3C3CC3)n1)C2(F)F [Example A2, (2R)-2-[6-(2-Cyclopropylphenyl)pyridin-2-yl]-1,1-difluoro-6-azaspiro[2.5]octane-6-sulfonamide] | 830 |
| NS(=O)(=O)N1CCC2(CC1)C(c1cccc(-c3cccc(C(F)(F)F)c3)c1)C2(F)F (racemic) [Example C1, 1,1-Difluoro-2-[3′-(trifluoromethyl)biphenyl-3-yl]-6-azaspiro[2.5]octane-6-sulfonamide] | 430 |
| NS(=O)(=O)N1CCC2(CC1)CC2c1cccc(-c2ccccc2)n1 (stereo not shown) [Example 3, 1-(6-Phenylpyridin-2-yl)-6-azaspiro[2.5]octane-6-sulfonamide] | 3000 |
| NS(=O)(=O)N1CCC2(CC1)C[C@H]2c1nc2ccccc2s1 [Example 1, (1R)-1-(1,3-Benzothiazol-2-yl)-6-azaspiro[2.5]octane-6-sulfonamide] | 930 |
| NS(=O)(=O)N1CCC2(CC1)[C@H](c1nc3ccccc3o1)C2(F)F [Example A3, (2R)-2-(1,3-Benzoxazol-2-yl)-1,1-difluoro-6-azaspiro[2.5]octane-6-sulfonamide] | 1000 |
| NS(=O)(=O)N1CCC2(CC1)[C@H](c1cccc(-c3ccc(C(F)(F)F)cc3)n1)C2(F)F [Example 5, (2R)-1,1-Difluoro-2-{6-[4-(trifluoromethyl)phenyl]pyridin-2-yl}-6-azaspiro[2.5]octane-6-sulfonamide] | 340 |
| NS(=O)(=O)N1CCC2(CC1)[C@@H](c1cccc(-c3ccc(C(F)(F)F)cc3)n1)C2(F)F [Example B1, (2S)-1,1-Difluoro-2-{6-[4-(trifluoromethyl)phenyl]pyridin-2-yl}-6-azaspiro[2.5]octane-6-sulfonamide] | 4400 |
| NS(=O)(=O)N1CCC2(CC1)C(c1cccc(-c3conc3C3CC3)n1)C2(F)F (single isomer, unassigned) [Example C2, 2-[6-(3-Cyclopropylisoxazol-4-yl)pyridin-2-yl]-1,1-difluoro-6-azaspiro[2.5]octane-6-sulfonamide] | 850 |
| NS(=O)(=O)N1CCC2(CC1)[C@H](c1cc(-c3ccccc3)ccn1)C2(F)F [Example A1, (2R)-1,1-Difluoro-2-(4-phenylpyridin-2-yl)-6-azaspiro[2.5]octane-6-sulfonamide] | 190 |
| Cc1ccccc1-c1cccc([C@@H]2C(F)(F)C23CCN(S(N)(=O)=O)CC3)n1 [Example 6, (2R)-1,1-Difluoro-2-[6-(2-methylphenyl)pyridin-2-yl]-6-azaspiro[2.5]octane-6-sulfonamide] | 2200 |
| NS(=O)(=O)N1CCC2(CC1)[C@H](c1nccc(-c3ccccc3)n1)C2(F)F [Example 4, (2R)-1,1-Difluoro-2-(4-phenylpyrimidin-2-yl)-6-azaspiro[2.5]octane-6-sulfonamide] | 1900 |

— patent publication US12534458B2, “Spiropiperidine allosteric modulators of nicotinic acetylcholine receptors” (Merck Sharp & Dohme LLC, priority 2019, dated 2026)
